In ChEMBL document CHEMBL4828714, “Mutasynthesis of Antibacterial Halogenated Actinomycin Analogues” (J Nat Prod, 2021):
Values after ≈ are worked out from the molar mass of the structure shown.

What was measured:
Staphylococcus aureus [1] = assay: Antimicrobial activity against Staphylococcus aureus Sau 16162 assessed as inhibition of bacterial growth incubated for 16 to 18 hrs by broth micro dilution technique; assay type: functional; details: time 16-18 hrs
Staphylococcus aureus [2] = assay: Antimicrobial activity against Staphylococcus aureus Sau 6917 assessed as inhibition of bacterial growth incubated for 16 to 18 hrs by broth micro dilution technique; assay type: functional; details: time 16-18 hrs
Staphylococcus aureus [3] = assay: Antimicrobial activity against Staphylococcus aureus Sau 1862 assessed as inhibition of bacterial growth incubated for 16 to 18 hrs by broth micro dilution technique; assay type: functional; details: time 16-18 hrs
Staphylococcus aureus [4] = assay: Antimicrobial activity against Staphylococcus aureus Sau 991 assessed as inhibition of bacterial growth incubated for 16 to 18 hrs by broth micro dilution technique; assay type: functional; details: time 16-18 hrs
Staphylococcus aureus [5] = assay: Antimicrobial activity against Staphylococcus aureus Sau 718306 assessed as inhibition of bacterial growth incubated for 16 to 18 hrs by broth micro dilution technique; assay type: functional; details: time 16-18 hrs
Staphylococcus aureus [6] = assay: Antimicrobial activity against Staphylococcus aureus Sau 745524 assessed as inhibition of bacterial growth incubated for 16 to 18 hrs by broth micro dilution technique; assay type: functional; details: time 16-18 hrs
Staphylococcus aureus [7] = assay: Antimicrobial activity against Staphylococcus aureus CCAM 3090 assessed as inhibition of bacterial growth incubated for 16 to 18 hrs by broth micro dilution technique; assay type: functional; details: time 16-18 hrs
Staphylococcus aureus [8] = assay: Antimicrobial activity against Staphylococcus aureus ATCC 29213 assessed as inhibition of bacterial growth incubated for 16 to 18 hrs by broth micro dilution technique; assay type: functional; details: time 16-18 hrs
Micrococcus luteus = assay: Antimicrobial activity against Micrococcus luteus ML01 assessed as inhibition of bacterial growth incubated for 16 to 18 hrs by broth micro dilution technique; assay type: functional; details: time 16-18 hrs
Enterococcus faecium = assay: Antimicrobial activity against Enterococcus faecium ATCC 35682 assessed as inhibition of bacterial growth incubated for 16 to 18 hrs by broth micro dilution technique; assay type: functional; details: time 16-18 hrs
Enterococcus faecalis = assay: Antimicrobial activity against Enterococcus faecalis ATCC 29212 assessed as inhibition of bacterial growth incubated for 16 to 18 hrs by broth micro dilution technique; assay type: functional; details: time 16-18 hrs
Bacillus thuringiensis = assay: Antimicrobial activity against Bacillus thuringiensis BT01 assessed as inhibition of bacterial growth incubated for 16 to 18 hrs by broth micro dilution technique; assay type: functional; details: time 16-18 hrs
Candida albicans = assay: Antimicrobial activity against Candida albicans assessed as inhibition of bacterial growth incubated for 16 to 18 hrs by broth micro dilution technique; assay type: functional; details: time 16-18 hrs
HepG2 = assay: Cytotoxicity against human HepG2 cells assessed as growth inhibition incubated for 68 hrs by MTT assay; assay type: functional, cell-based; details: HepG2, 68 h
HeLa = assay: Cytotoxicity against human HeLa cells assessed as growth inhibition incubated for 68 hrs by MTT assay; assay type: functional, cell-based
HL-60 = assay: Cytotoxicity against human HL-60 cells assessed as growth inhibition incubated for 68 hrs by MTT assay; assay type: functional, cell-based; details: HL-60, 68 h
RKO = assay: Cytotoxicity against human RKO cells assessed as growth inhibition incubated for 68 hrs by MTT assay; assay type: functional, cell-based
A549 = assay: Cytotoxicity against human A549 cells assessed as growth inhibition incubated for 68 hrs by MTT assay; assay type: functional, cell-based; details: A549, 68 h
MCF7 = assay: Cytotoxicity against human MCF7 cells assessed as growth inhibition incubated for 68 hrs by MTT assay; assay type: functional, cell-based; details: MCF7, 68 h
L02 = assay: Cytotoxicity against human L02 cells assessed as growth inhibition incubated for 68 hrs by MTT assay; assay type: cell-based; details: L02, 68 h
BEAS-2B = assay: Cytotoxicity against human BEAS-2B cells assessed as growth inhibition incubated for 68 hrs by MTT assay; assay type: cell-based

| MIC (Staphylococcus aureus [1]) [µg/mL] | MIC (Staphylococcus aureus [2]) [µg/mL] | MIC (Staphylococcus aureus [3]) [µg/mL] | MIC (Staphylococcus aureus [4]) [µg/mL] | MIC (Staphylococcus aureus [5]) [µg/mL] | MIC (Staphylococcus aureus [6]) [µg/mL] | MIC (Staphylococcus aureus [7]) [µg/mL] | MIC (Staphylococcus aureus [8]) [µg/mL] | MIC (Micrococcus luteus) [µg/mL] | MIC (Enterococcus faecium) [µg/mL] | MIC (Enterococcus faecalis) [µg/mL] | MIC (Bacillus thuringiensis) [µg/mL] | MIC (Candida albicans) [µg/mL] | Compound | IC50 (HepG2) [µM] | IC50 (HeLa) [µM] | IC50 (HL-60) [µM] | IC50 (RKO) [µM] | IC50 (A549) [µM] | IC50 (MCF7) [µM] | IC50 (L02) [µM] | further results |
| --- | --- | --- | --- | --- | --- | --- | --- | --- | --- | --- | --- | --- | --- | --- | --- | --- | --- | --- | --- | --- | --- |
| 16 (≈ 11.4 µM) | 32 (≈ 22.8 µM) | 16 (≈ 11.4 µM) | 16 (≈ 11.4 µM) | 16 (≈ 11.4 µM) | 16 (≈ 11.4 µM) | 16 (≈ 11.4 µM) | 16 (≈ 11.4 µM) | 0.5 (≈ 0.357 µM) | 2 (≈ 1.43 µM) | 32 (≈ 22.8 µM) | 2 (≈ 1.43 µM) | 8 (≈ 5.71 µM) | CC(C)[C@H]1C(=O)O[C@H](C)[C@H](NC(=O)c2c3nc4c(C(=O)N[C@@H]5C(=O)N[C@H](C(C)C)C(=O)N6CCC[C@H]6C(=O)N(C)CC(=O)N(C)[C@@H](C(C)C)C(=O)O[C@@H]5C)ccc(Br)c4oc-3c(Br)c(=O)c2N)C(=O)N[C@H](C(C)C)C(=O)N2C[C@@H](O)C[C@H]2C(=O)N(C)CC(=O)N1C | 3 | 2.4 | 0.2 | 1.3 | 53.7 | 2.9 | 3.1 | IC50 (BEAS-2B): 0.9 µM |
| 8 (≈ 5.91 µM) | 4 (≈ 2.96 µM) | 4 (≈ 2.96 µM) | 4 (≈ 2.96 µM) | 2 (≈ 1.48 µM) | 2 (≈ 1.48 µM) | 4 (≈ 2.96 µM) | 4 (≈ 2.96 µM) | 0.06 (≈ 0.0443 µM) | 2 (≈ 1.48 µM) | 4 (≈ 2.96 µM) | 1 (≈ 0.739 µM) | 2 (≈ 1.48 µM) | CC(C)[C@H]1C(=O)O[C@H](C)[C@H](NC(=O)c2c3nc4c(C(=O)N[C@@H]5C(=O)N[C@H](C(C)C)C(=O)N6CCC[C@H]6C(=O)N(C)CC(=O)N(C)[C@@H](C(C)C)C(=O)O[C@@H]5C)cccc4oc-3c(I)c(=O)c2N)C(=O)N[C@H](C(C)C)C(=O)N2CCC[C@H]2C(=O)N(C)CC(=O)N1C | 3.3 | 10 | 0.4 | 3.3 | 34 | 25.7 | 20.9 | IC50 (BEAS-2B): 12.4 µM |
| 32 (≈ 22.8 µM) | 32 (≈ 22.8 µM) | 32 (≈ 22.8 µM) | 32 (≈ 22.8 µM) | 16 (≈ 11.4 µM) | 32 (≈ 22.8 µM) | 32 (≈ 22.8 µM) | 32 (≈ 22.8 µM) | 2 (≈ 1.43 µM) | 4 (≈ 2.85 µM) | 32 (≈ 22.8 µM) | 4 (≈ 2.85 µM) | 8 (≈ 5.71 µM) | CC(C)[C@H]1C(=O)O[C@H](C)[C@H](NC(=O)c2c3nc4c(C(=O)N[C@@H]5C(=O)N[C@H](C(C)C)C(=O)N6CCC[C@H]6C(=O)N(CO)CC(=O)N(C)[C@@H](C(C)C)C(=O)O[C@@H]5C)ccc(Br)c4oc-3c(Br)c(=O)c2N)C(=O)N[C@H](C(C)C)C(=O)N2CCC[C@H]2C(=O)N(C)CC(=O)N1C | > 50 | > 50 | > 50 | 24.6 | 37.8 | 12.8 | 13.3 | IC50 (BEAS-2B): 5.8 µM |
